The results in this text go back to ChEMBL document CHEMBL3880389, “Heterocyclic compounds as inhibitors of the sodium iodide symporter” (2014).

The pIC50 is the IC50 on a negative log10 scale, so that one unit is a factor of ten.

pIC50: −log10 of the molar value.

The target of one test is T1, Sodium/iodide cotransporter (Rattus norvegicus, UniProt Q63008).
T1 sequence (Q63008 whole entry): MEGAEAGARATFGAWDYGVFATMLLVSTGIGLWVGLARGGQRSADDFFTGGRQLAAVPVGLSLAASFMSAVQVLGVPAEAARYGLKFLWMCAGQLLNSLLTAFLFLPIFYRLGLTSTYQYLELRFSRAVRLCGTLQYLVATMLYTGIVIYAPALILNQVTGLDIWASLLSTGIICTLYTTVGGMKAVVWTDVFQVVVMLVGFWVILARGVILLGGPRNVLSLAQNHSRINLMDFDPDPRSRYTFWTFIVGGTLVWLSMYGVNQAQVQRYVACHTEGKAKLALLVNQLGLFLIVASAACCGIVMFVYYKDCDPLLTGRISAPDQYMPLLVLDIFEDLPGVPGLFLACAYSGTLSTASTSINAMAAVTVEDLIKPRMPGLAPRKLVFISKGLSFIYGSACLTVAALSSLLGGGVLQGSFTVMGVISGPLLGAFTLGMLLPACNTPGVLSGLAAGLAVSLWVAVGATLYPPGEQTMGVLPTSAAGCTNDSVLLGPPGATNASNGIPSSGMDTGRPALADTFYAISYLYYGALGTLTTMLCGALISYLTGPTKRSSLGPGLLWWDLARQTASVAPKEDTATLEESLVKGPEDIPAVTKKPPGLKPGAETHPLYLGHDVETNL
The test can be described thus: Inhibition of sodium iodide symporter in rat FRTL5 cells assessed as decrease in [125I]-sodium iodide uptake after 60 mins by scintillation counting method. The class given is cell-based, FRTL-5.
Turning to `O=[N+]([O-])c1cccc(C2NCCc3c2[nH]c2ccccc32)c1` (configuration not stated), the pIC50 is 6.52. The same measure, in the same setting: the value for `Brc1cccc(C2NCCc3c2[nH]c2ccccc32)c1` (configuration not stated) was 6.40.

A further test has as its target T1, Sodium/iodide cotransporter. The test can be described thus: Inhibition of sodium iodide symporter in rat FRTL5 cells assessed as decrease in sodium iodide uptake after 60 mins by scintillation counting method. The class given is cell-based, FRTL-5.
On to `F[P-](F)(F)(F)(F)F.[Na+]`, for which the pIC50 is 8.05. In the case of `N#CS` [THIOCYANIC ACID], the pIC50 was 4.85. Same read-out and setting: next, `F[B-](F)(F)F`: 6.12; `[O-][Cl+3]([O-])([O-])O` [PERCHLORATE]: 6.85; `O=[N+]([O-])O`: 3.60.
